Measurements as given in patent publication US12036281B2 (ONEHEALTHCOMPANY, INC., priority 2019, dated 2024).

What was measured:
cancer = test: Treatment of canine cancers with targeted drug, disease progression and overall survival compared to historical controls; assay type: in vivo; conditions: alone or in combination with other anti-cancer agents
Method: Canine subjects with cancer were treated with Rapamycin alone or in combination with other anti-cancer agents (Tables 3 and 12-26). The subjects were administered Rapamycin orally with a starting dose of 0.1 mg/kg/day and were monitored for disease progression compared to historical controls.
Canine subjects with cancer were treated with Dasatinib alone or in combination with other anti-cancer agents (Tables 4 and 12-26). The subjects were administered Dasatinib orally with a starting dose of 0.5-0.7 mg/kg/day and were monitored for disease progression compared to historical controls.
Canine subjects with cancer were treated with Vorinostat alone or in combination with other anti-cancer agents (Tables 7 and 12-26). The subjects were administered Vorinostat orally with a starting dose of 30-60 mg/kg/every other day and were monitored for disease progression compared to historical controls.
Canine subjects with cancer were treated with Crizotinib alone or in combination with other anti-cancer agents (Table 9 and 12-26). The subjects were administered Crizotinib orally with a starting dose of 1 mg/kg/day-2 mg/kg/day and were monitored for disease progression compared to historical controls.
Canine subjects with cancer were treated with Sorafenib alone or in combination with other anti-cancer agents (Tables 10 and 12-26). The subjects were administered Sorafenib orally with a starting dose of 1 mg/kg/day-3 mg/kg/day or 1 mg/kg/day-3 mg/kg/week and were monitored for disease progression compared to historical controls.

[1] = Number and type of adverse effects reported in treated canines; assay type: in vivo; conditions: canine subjects with cancer; for subjects with clinically reported outcomes that experienced adverse effects: diarrhea, vomiting, inappetence, lethargy, skin lesions, liver enzymes, cardiac toxicity, hemorrhagic gastroenteritis monitored, cohorts 192, 94, 162, 275, 89, 83, 9 subjects
Method: Canine subjects with cancer were treated with pharmaceutical compositions comprising Rapamycin and were monitored for adverse effects including: diarrhea, vomiting inappetence, lethargy, skin lesions, progressive liver enzyme evaluations, increased cardiac toxicity and hemorrhagic gastroenteritis.
Canine subjects with cancer were treated with pharmaceutical compositions comprising Dasatinib and were monitored for adverse effects including: diarrhea, vomiting inappetence, lethargy, skin lesions, progressive liver enzyme evaluations, increased cardiac toxicity and hemorrhagic gastroenteritis.
Canine subjects with cancer were treated with pharmaceutical compositions comprising Vorinostat and were monitored for adverse effects including: diarrhea, vomiting inappetence, lethargy, skin lesions, progressive liver enzyme evaluations, increased cardiac toxicity and hemorrhagic gastroenteritis.
Canine subjects with cancer were treated with pharmaceutical compositions comprising Crizotinib and were monitored for adverse effects including: diarrhea, vomiting inappetence, lethargy, skin lesions, progressive liver enzyme evaluations, increased cardiac toxicity and hemorrhagic gastroenteritis.
Canine subjects with cancer were treated with pharmaceutical compositions comprising Sorafenib and were monitored for adverse effects including: diarrhea, vomiting inappetence, lethargy, skin lesions, progressive liver enzyme evaluations, increased cardiac toxicity and hemorrhagic gastroenteritis.

Row | Structure (SMILES) | subjects with clinically reported outcomes that experienced adverse effects [1] [%] | other results
1 | C[C@@H](Oc1cc(-c2cnn(C3CCNCC3)c2)cnc1N)c1c(Cl)ccc(F)c1Cl [Crizotinib] | 43 | overall survival compared to control subjects (cancer; Crizotinib orally, starting dose 1 mg/kg/day-2 mg/kg/day): significant improvement
2 | Cc1nc(Nc2ncc(C(=O)Nc3c(C)cccc3Cl)s2)cc(N2CCN(CCO)CC2)n1 [Dasatinib] | 31 | 
3 | Cc1ccc(NC(=O)c2ccc(CN3CCN(C)CC3)cc2)cc1Nc1nccc(-c2cccnc2)n1 [Imatinib] |  | overall survival compared to control subjects (cancer; Imatinib orally, starting dose 10 mg/kg/day): significant improvement
4 | CS(=O)(=O)CCNCc1ccc(-c2ccc3ncnc(Nc4ccc(OCc5cccc(F)c5)c(Cl)c4)c3c2)o1 [Lapatinib] | 22 | overall survival compared to control subjects (cancer; Lapatinib orally, starting dose 5-10 mg/kg/day): significant improvement
5 | CO[C@H]1C[C@@H]2CC[C@@H](C)[C@@](O)(O2)C(=O)C(=O)N2CCCC[C@H]2C(=O)O[C@H]([C@H](C)C[C@@H]2CC[C@@H](O)[C@H](OC)C2)CC(=O)[C@H](C)/C=C(\C)[C@@H](O)[C@@H](OC)C(=O)[C@H](C)C[C@H](C)/C=C/C=C/C=C/1C [Rapamycin] | 21 | 
6 | CNC(=O)c1cc(Oc2ccc(NC(=O)Nc3ccc(Cl)c(C(F)(F)F)c3)cc2)ccn1 [Sorafenib] |  | overall survival compared to control subjects (cancer; Sorafenib orally, starting dose 1 mg/kg/day-3 mg/kg/day or 1 mg/kg/day-3 mg/kg/week): significant improvement; subjects with clinically reported outcomes that experience adverse effects ([1]; result in words): A minority of subjects
7 | CC(=O)Nc1cccc(-n2c(=O)n(C3CC3)c(=O)c3c(Nc4ccc(I)cc4F)n(C)c(=O)c(C)c32)c1 [Trametinib] | 24 | 
8 | O=C(CCCCCCC(=O)Nc1ccccc1)NO [Vorinostat] | 34 | overall survival compared to control subjects (cancer; Vorinostat orally, starting dose 30-60 mg/kg/every other day): significant improvement
